{
  "source": "paper PMC10873978",
  "about": "“Novel tetrahydroisoquinolines as DHFR and CDK2 inhibitors: synthesis, characterization, anticancer activity and antioxidant properties” (BMC Chemistry, 2024)",
  "key": {"MCF7 cell line [1]": {"tested_on": "MCF7 cell line", "assay": "In vitro cytotoxic activity, MTT method, MCF7", "assay_type": "cell-based, human", "settings": "for IC50: MTT", "how_it_was_run": "(§1)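 Monolayers formed over 24 h at 37 °C from 10^5 cells/mL were treated with graded compound concentrations, doxorubicin serving as reference. Viability came from MTT reduction over 1–5 h (5% CO2), absorbance at 560 nm with 620 nm background subtraction.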"}, "A549 cell line": {"tested_on": "A549 cell line", "assay": "In vitro cytotoxic activity, MTT method, A549", "how_it_was_run": "as §1"}, "[2]": {"assay": "Cytotoxicity on normal cell line WI-38", "assay_type": "cell-based, human", "settings": "human, WI-38 cells (normal fetal lung fibroblasts)"}, "WI-38 cell line": {"tested_on": "WI-38 cell line", "assay": "Cytotoxicity on normal cell line WI-38", "assay_type": "cell-based, human", "settings": "for IC50: read-out: Toxicity on WI38 IC50 ± SD"}, "MCF7 cell line [3]": {"tested_on": "MCF7 cell line", "assay": "Annexin-V FITC/PI apoptosis assay, MCF7", "assay_type": "cell-based, human", "settings": "MCF7, compound at IC50, 24 h", "description": "(www.biovision.com). […] These stained cells were measured using flow cytometry with an excitation wavelength of 488 nm and an emission wavelength of 530 nm. The results were then analyzed with the Cell quest software.\nTo further investigate whether the anti-proliferative activity for compound 7e or 8d is harmonious with the apoptosis induction within A549 or MCF7 cells pointed out by the increased cell population in G2/M phase in 7e-treated A549 cells and S phase in 8d-treated MCF7 cells, respectively, and AnnexinV-FITC/PI dual staining analysis was used for the apoptosis assay (Fig. 3)."}, "IKB kinase B": {"target": "T1, IKB kinase B (Homo sapiens, UniProt O14920)", "T1 sequence (O14920 1-756)": "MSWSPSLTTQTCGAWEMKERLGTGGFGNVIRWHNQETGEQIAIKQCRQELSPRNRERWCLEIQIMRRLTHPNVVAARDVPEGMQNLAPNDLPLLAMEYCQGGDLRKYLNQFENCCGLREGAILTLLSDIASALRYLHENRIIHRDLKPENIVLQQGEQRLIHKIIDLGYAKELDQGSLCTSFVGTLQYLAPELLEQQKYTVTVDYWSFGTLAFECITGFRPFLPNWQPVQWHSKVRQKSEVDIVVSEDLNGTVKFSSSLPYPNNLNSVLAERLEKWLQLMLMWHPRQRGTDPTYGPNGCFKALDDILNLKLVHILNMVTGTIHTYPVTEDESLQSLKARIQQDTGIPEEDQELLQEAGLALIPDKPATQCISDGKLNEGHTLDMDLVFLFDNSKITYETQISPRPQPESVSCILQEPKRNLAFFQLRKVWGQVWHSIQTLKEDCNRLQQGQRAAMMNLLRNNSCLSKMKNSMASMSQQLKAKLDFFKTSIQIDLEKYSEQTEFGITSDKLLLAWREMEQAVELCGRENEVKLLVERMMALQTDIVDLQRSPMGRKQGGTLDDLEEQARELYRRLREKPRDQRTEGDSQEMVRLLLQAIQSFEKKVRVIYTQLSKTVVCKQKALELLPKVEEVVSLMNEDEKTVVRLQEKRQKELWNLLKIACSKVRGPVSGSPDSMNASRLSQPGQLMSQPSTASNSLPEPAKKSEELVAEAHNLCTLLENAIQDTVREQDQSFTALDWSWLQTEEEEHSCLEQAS", "assay": "IKB kinase inhibition", "assay_type": "biochemical", "settings": "for %inh: IκB"}},
  "note": "Where “and” joins values, the source holds several entries; their conditions need not be identical. Equal values may be shown once. Read-outs that look alike come from different tables or passages of the source.",
  "data": [
    {"smiles": "CC(=O)c1ccc(NC(=O)c2sc3nc(C)c4c(c3c2N)CC(C)(O)C(C(C)=O)C4c2ccc(N(C)C)cc2)cc1", "note": "(centres unmarked) [Compound 8d, 7-Acetyl-N-(4-acetylphenyl)-1-amino-5,8-dimethyl-8-hydroxy-6-(4-N,N-dimethylaminophenyl)-6,7,8,9-tetrahydrothieno[2,3-c]isoquinoline-2-carboxamide]", "values": [
      {"measurement": "IC50", "setting": "MCF7 cell line [1]; Homo sapiens, MCF7, MCF7 cell line", "result": 170, "unit": "nM"},
      {"measurement": "Toxicity %", "setting": "MCF7 cell line [1]; MCF7, Conc. 0.0487 µMol", "result": 21.79, "unit": "%"},
      {"measurement": "Viability %", "setting": "MCF7 cell line [1]; MCF7, Conc. 0.0487 µMol", "result": 78.2125, "unit": "%"},
      {"measurement": "Viability %", "setting": "MCF7 cell line [1]; MCF7, Conc. 0.0975 µMol", "result": 54.4424, "unit": "%"},
      {"measurement": "Toxicity %", "setting": "MCF7 cell line [1]; MCF7, Conc. 0.195 µMol", "result": 54.13, "unit": "%"},
      {"measurement": "Viability %", "setting": "MCF7 cell line [1]; MCF7, Conc. 0.195 µMol", "result": 45.87, "unit": "%"},
      {"measurement": "Toxicity %", "setting": "MCF7 cell line [1]; MCF7, Conc. 0.391 µMol", "result": 65.48, "unit": "%"},
      {"measurement": "Viability %", "setting": "MCF7 cell line [1]; MCF7, Conc. 0.391 µMol", "result": 34.52, "unit": "%"},
      {"measurement": "Toxicity %", "setting": "MCF7 cell line [1]; MCF7, Conc. 0.781 µMol", "result": 88.6, "unit": "%"},
      {"measurement": "Viability %", "setting": "MCF7 cell line [1]; MCF7, Conc. 0.781 µMol", "result": 11.4, "unit": "%"},
      {"measurement": "Toxicity %", "setting": "MCF7 cell line [1]; MCF7, Conc. 1.562 µMol", "result": 93.83, "unit": "%"},
      {"measurement": "Viability %", "setting": "MCF7 cell line [1]; MCF7, Conc. 1.562 µMol", "result": 6.168, "unit": "%"},
      {"measurement": "Toxicity %", "setting": "MCF7 cell line [1]; MCF7, Conc. 3.125 µMol", "result": 94.61, "unit": "%"},
      {"measurement": "Viability %", "setting": "MCF7 cell line [1]; MCF7, Conc. 3.125 µMol", "result": 5.392, "unit": "%"},
      {"measurement": "Toxicity %", "setting": "MCF7 cell line [1]; MCF7, Conc. 6.25 µMol", "result": 96.41, "unit": "%"},
      {"measurement": "Viability %", "setting": "MCF7 cell line [1]; MCF7, Conc. 6.25 µMol", "result": 3.595, "unit": "%"},
      {"measurement": "Toxicity %", "setting": "MCF7 cell line [1]; MCF7, Conc. 12.5 µMol", "result": 97.06, "unit": "%"},
      {"measurement": "Viability %", "setting": "MCF7 cell line [1]; MCF7, Conc. 12.5 µMol", "result": 2.941, "unit": "%"},
      {"measurement": "Toxicity %", "setting": "MCF7 cell line [1]; MCF7, Conc. 25 µMol", "result": 97.55, "unit": "%"},
      {"measurement": "Viability %", "setting": "MCF7 cell line [1]; MCF7, Conc. 25 µMol", "result": 2.451, "unit": "%"},
      {"measurement": "IC50", "setting": "MCF7 cell line [1]; MCF7 cell line", "result": "117 ± 4", "unit": "nM"},
      {"measurement": "Toxicity %", "setting": "A549 cell line; A549, Conc. 0.04875 µMol", "result": 13.49, "unit": "%"},
      {"measurement": "Toxicity %", "setting": "A549 cell line; A549, Conc. 0.0975 µMol", "result": 15.39, "unit": "%"},
      {"measurement": "Toxicity %", "setting": "A549 cell line; A549, Conc. 0.195 µMol", "result": 19.17, "unit": "%"},
      {"measurement": "Viability %", "setting": "A549 cell line; A549, Conc. 0.195 µMol", "result": 80.83, "unit": "%"},
      {"measurement": "Toxicity %", "setting": "A549 cell line; A549, Conc. 0.391 µMol", "result": 43.87, "unit": "%"},
      {"measurement": "Viability %", "setting": "A549 cell line; A549, Conc. 0.391 µMol", "result": 56.13, "unit": "%"},
      {"measurement": "Toxicity %", "setting": "A549 cell line; A549, Conc. 0.781 µMol", "result": 53.45, "unit": "%"},
      {"measurement": "Viability %", "setting": "A549 cell line; A549, Conc. 0.781 µMol", "result": 46.55, "unit": "%"},
      {"measurement": "Toxicity %", "setting": "A549 cell line; A549, Conc. 1.562 µMol", "result": 68.4, "unit": "%"},
      {"measurement": "Viability %", "setting": "A549 cell line; A549, Conc. 1.562 µMol", "result": 31.6, "unit": "%"},
      {"measurement": "Toxicity %", "setting": "A549 cell line; A549, Conc. 3.125 µMol", "result": 82.68, "unit": "%"},
      {"measurement": "Viability %", "setting": "A549 cell line; A549, Conc. 3.125 µMol", "result": 17.32, "unit": "%"},
      {"measurement": "Toxicity %", "setting": "A549 cell line; A549, Conc. 6.25 µMol", "result": 88.4, "unit": "%"},
      {"measurement": "Viability %", "setting": "A549 cell line; A549, Conc. 6.25 µMol", "result": 11.6, "unit": "%"},
      {"measurement": "Toxicity %", "setting": "A549 cell line; A549, Conc. 12.5 µMol", "result": 96.41, "unit": "%"},
      {"measurement": "Viability %", "setting": "A549 cell line; A549, Conc. 12.5 µMol", "result": 3.59, "unit": "%"},
      {"measurement": "Toxicity %", "setting": "A549 cell line; A549, Conc. 25 µMol", "result": 96.65, "unit": "%"},
      {"measurement": "Viability %", "setting": "A549 cell line; A549, Conc. 25 µMol", "result": 3.353, "unit": "%"},
      {"measurement": "IC50", "setting": "A549 cell line; Homo sapiens, read-out: IC50 ± SD", "result": "515 ± 2", "unit": "nM"},
      {"measurement": "viability at 3.125 µM", "setting": "[2]; WI38", "result": 86.3, "unit": "%"},
      {"measurement": "viability at 1.55 µM", "setting": "[2]; WI38, 1.55uM (log conc. 0.19), read-out: % viability", "result": 96.7, "unit": "%"},
      {"measurement": "viability at 6.25 µM", "setting": "[2]; WI38, 6.25uM (log conc. 0.8), read-out: % viability", "result": 74, "unit": "%"},
      {"measurement": "viability at 12.5 µM", "setting": "[2]; WI38, 12.5uM (log conc. 1.1), read-out: % viability", "result": 62.8, "unit": "%"},
      {"measurement": "viability at 25 µM", "setting": "[2]; WI38, 25uM (log conc. 1.4), read-out: % viability", "result": 46.9, "unit": "%"},
      {"measurement": "IC50", "setting": "WI-38 cell line; Homo sapiens, WI-38, normal human fetal lung fibroblast WI-38", "result": 23300, "unit": "nM"},
      {"measurement": "Selectivity index (SI)", "setting": "WI-38 cell line; IC50 in WI-38 / IC50 in A549", "result": "45 and 45.24"},
      {"measurement": "% viability", "setting": "WI-38 cell line; WI38, 6.25uM (log conc. 0.8), 6.25 µM", "result": 73.9744, "unit": "%"},
      {"measurement": "% viability", "setting": "WI-38 cell line; WI38, 25uM (log conc. 1.4), 25 µM", "result": 46.8729, "unit": "%"},
      {"measurement": "IC50", "setting": "WI-38 cell line; normal human fetal lung fibroblast WI-38", "result": "23300 ± 930", "unit": "nM"},
      {"measurement": "early apoptotic population", "setting": "MCF7 cell line [3]", "result": 22.38, "unit": "%"},
      {"measurement": "late apoptotic population", "setting": "MCF7 cell line [3]", "result": 26.96, "unit": "%"},
      {"measurement": "population of necrotic cells", "setting": "MCF7 cell line [3]", "result": 5.04, "unit": "%"},
      {"measurement": "%inh", "setting": "IKB kinase B; conc 0.01 (log -2)", "result": 21.8, "unit": "%"},
      {"measurement": "%inh", "setting": "IKB kinase B; conc 0.1 (log -1)", "result": 42.3, "unit": "%"},
      {"measurement": "%inh", "setting": "IKB kinase B; conc 1 (log 0)", "result": 63.9, "unit": "%"},
      {"measurement": "%inh", "setting": "IKB kinase B; conc 10 (log 1)", "result": 86.4, "unit": "%"},
      {"measurement": "%inh", "setting": "IKB kinase B; conc 100 (log 2)", "result": 93.7, "unit": "%"},
      {"measurement": "IC50", "setting": "IKB kinase B; read-out: IKB kinase B (IC50 ± SD)", "result": "240 ± 13", "unit": "nM"}
    ]}
  ]
}
